Measured values: US20250017885A1, “TREATMENT OF INCLUSION BODY MYOSITIS WITH PHENYLBUTYRATE AND MONITORING OF TREATMENT” (University of Kansas, priority 2023, published 2025)
“Also recorded” adds a separate entry of the source.

Assays:
Format in all cases: in vivo, human
[1] = system: patients with inclusion body myositis; test: Secondary outcome measures: strength and functional measures (manual muscle testing, TUG, IBMFRS, grip strength)
Description: Primary outcome measures included adverse event reporting. Secondary outcome measures included multiple strength and functional measures: manual muscle testing, timed up and go test (TUG), IBM functional rating scale (IBMFRS), and grip strength. These clinical outcome measures were commonly used in evaluating progression of IBM and in clinical trials of this disease.^18,19,20,21 In addition, safety laboratory tests and electrocardiogram would be monitored regularly. As mentioned above, the biomarkers would be repeated at the end of the treatment period. For the secondary outcomes, the measurements at baseline, month-3, and month-7 would be reported using mean and standard deviation (or median and interquartile range for skewed measurements) along with a corresponding 95% confidence interval. These measurements would be visually compared using box plots to detect the presence of a trend over time by drawing a trend line on the means (or median). Due to the small sample size, this comparison would be done visually, and no formal statistical test would be done routinely but it would be considered to further study a trend.

[2] = system: Annexin, MitoSox, TMRE, TDP-43; test: Exploratory biomarkers: Annexin, MitoSox, TMRE, TDP-43; settings: FIGS. 7A-7B, 8A-8B, 9A-9B, 10A-10B
Description: (§1) Safety and tolerability of PBA in IBM patients were studied, with a run-in period of 3 months without medication. Biomarkers were studied. […] We have previously assayed TDP-43 and its derivative, phosphorylated TDP-43 (pTDP-43) in peripheral blood platelets in our laboratory (Dr. Agbas). TDP43 positive cytoplasmic aggregates have been described in ALS motor neurons and IBM skeletal muscle tissue with significant up-regulation of TARDBP (the gene expresses TDP-43 protein) and SQTM1 (Sequestosome-1) gene expression.14 Therefore, we planned to measure blood-derived platelet total TDP-43 and pTDP-43 as surrogate biomarker for skeletal muscle TDP-43 profile of IBM patients.

[3] = system: mitochondrial membrane potential; test: MitoTracker biomarker (overall mitochondrial mass / mitochondrial membrane potential) in IBM patients treated with PBA
Description: The mitochondrial tracker used to track treatment of IBM with PBA can include MitoTracker dyes that are cationic fluorophores that accumulate electrophoretically into mitochondria in response to the highly negative mitochondrial membrane potential. […] Thus, mitochondria retain MitoTracker dyes like MitoTracker Orange CMTMRos after loss of their membrane potential. Sec, Kholmukhamedov A, Schwartz J M, Lemasters J J. Isolated mitochondria infusion mitigates ischemia-reperfusion injury of the liver in rats: mitotracker probes and mitochondrial membrane potential. Shock. 2013 June; 39(6):543. doi:10.1097/SHK.0b013e318292300d. PMID: 23680774; PMCID: PMC3759289.
as §1
The trend observed in the boxplots of MitoTracker data warranted further exploration with a post hoc analysis. A generalized linear mixed model was used to estimate mean values of MitoTracker at each timepoint. 10 of 11 subjects had measurements at all 3 timepoints. Time was used as a categorical value and correlation among an individual's repeated measurements was accounted for with a random effect for subject. The fixed effect, month, was not statistically significant (p=0.0724). […] The results from the model are exploratory.
For the secondary outcomes, the measurements at baseline, month-3, and month-7 would be reported using mean and standard deviation (or median and interquartile range for skewed measurements) along with a corresponding 95% confidence interval. These measurements would be visually compared using box plots to detect the presence of a trend over time by drawing a trend line on the means (or median). Due to the small sample size, this comparison would be done visually, and no formal statistical test would be done routinely but it would be considered to further study a trend.

**Q.** Which results are given for phenylbutyrate [PBA]?
**A.** IBMFRS change during the study ([1]; 3 months run-in, 3 months treatment): did not seem to change during the study; IBMFRS median ([1]; at the end of the treatment period, median 23 at baseline, 24 at the beginning of the treatment period): 23; Strength evaluation of 24 muscles with accumulative total score, change ([1]; in vivo): No meaningful change; TUG (seconds) over the duration of the treatment, change ([1]; in vivo): No meaningful change; Change in all clinical and most biological outcome measures ([1]; short duration, small sample size): no meaningful changes in all clinical and most biological outcome measures; Change in exploratory biomarkers (Annexin, MitoSox, TMRE, TDP-43) [2]: no meaningful change in most exploratory biomarkers; MitoTracker median ([3]; at the end of the treatment period, 19299 at the baseline, 28823 at the beginning of the treatment period): 8010; MitoTracker estimated coefficient (95% CI), Month 6 ([3]; generalized linear mixed model, Month 3 reference, p 0.0385): −21,344 (−41,402, −1,287); MitoTracker estimated coefficient (95% CI), On treatment - Off treatment ([3]; generalized linear mixed model, after treatment vs months 0 and 3 combined): 20,780 (3,091, 38,469); MitoTracker (mitochondrial mass) change with treatment ([3]; treatment period vs run-in period): statistically significant change in the mitochondria; also recorded: changes with treatment with PBA; also recorded: statistically significant change in MitoTracker (mitochondrial mass); also recorded: dropped at the end of the treatment period; also recorded: statistically significantly different from pre-treatment; also recorded: significant drop with treatment
